This is an account of results in patent publication US12338263B2, “Antibacterial aminoglycoside derivatives” (priority 2019, dated 2025).

A word on the CC50: it is the concentration that lowers cell viability or growth by half.

Data set [1] has as its system auditory function in guinea pigs. The data set can be described thus: Auditory safety: compound action potential (CAP) in guinea pigs. It is filed as in vivo. To be noted: guinea pig, in vivo, sc, 100 mg/kg. The protocol:
Healthy adult guinea pigs (150-250 g) were employed as the research objects, and were randomly divided into saline control group, gentamicin group, compound Plazomicin group and Compound 1 group, with 8 animals in each group. Subcutaneous administration is used, and the following assays were carried out during and after the administration for 14 consecutive days: • 1. To analyze the effects of different drugs on the auditory function of guinea pigs, the compound action potential (CAP) of animals was recorded on the 14th day (29th day, i.e., 4 weeks) after administration. The results obtained were analyzed and the changes of the threshold shift, amplitude, latency and other indicators among different treatment groups were compared. • 2. After the different groups of animals were processed and the auditory function data thereof were collected, the cochlea of the animals was taken out for fixation and staining. Surface preparation of basilar membrane of the cochlea on one side was performed to count the loss of hair cells so as to make a cochlea map, and the cochlea on the other side was decalcified and frozen sectioned. The density of spiral ganglion neurons was counted and compared among groups. Research Results: 1. Administration Method and Treatment
Gentamicin from Dalian Meilun Biotechnology Co., Ltd., and Plazomicin and Compound 1 from WuXi AppTec (WuHan) Co., Ltd. are used, the solution of which were prepared just before use each time by using saline for dissolution to the concentration of 50 mg/mL, and the injection dose was 100 mg/kg body weight. Method: subcutaneous injection, and confirmation of no liquid leakage after each injection.
The compound action potential (CAP) was tested and recorded when clicks and different frequencies of pure tones (1 KHz-32 kHz) were applied to each group of animals, and variations in amplitude and latency were mainly compared when clicks and medium and high frequency pure tones (16, 32 kHz) were applied. The magnitude of amplitude reflects the responsiveness of hair cells and auditory nerves. The larger the amplitude and the greater the slope of the I/O curve were, the better the responsiveness and the better the function were. In addition, the cochlea from apical turn to basal turn was responsive to sounds from low-frequency to high-frequency respectively, which is the frequency correspondence of the cochlear basilar membrane. The functional changes to different frequencies correspond to the different structural and functional changes of the cochlea fromapical turn to basal turn. The length of latency was also related to the function of the hair cells and auditory nerve response. Generally speaking, increasing of the threshold value when the cochlea was injured would inevitably lead to the extension of latency. […] In other words, the extension of latency reflected the decrease of response function. The previous ototoxicity of aminoglycoside antibiotics was mainly concentrated in the high-frequency area. In this study, the gentamicin group was consistent with previous results, as summarized below.

Data set [2] in a line: Toxicity test on HK-2 cells (Alma Blue). The format is cell-based. To be noted: human, 43 hours incubation plus 3 hours Alma Blue, read-out: CC50 of HK-2 cell. As for the experimental part:
(§1) On the day of the experiment, when the HK-2 cells in the culture flask reached 80%-90% confluent, the culture medium was discarded, the cells were washed twice with Dulbecco's phosphate buffered saline (DPBS) and digested for 1 to 2 minutes with 3 mL trypsin (T150 cell culture flask), and immediately 9 ml complete medium (RPMI1640+10% FBS) were added to terminate the digestion. After termination, single cells suspension were formed by pipetting gently, which were centrifuged at 1000 […] for 5 minutes. The supernatant was discarded, and fresh complete medium were added, and the cells were pipetted evenly. The actual cell density was measured according to the cell counter and the cell suspension was adjusted to 2.5×10^5 cells/mL. 80 μL of cell suspension was drawn by a row pipettor and added into a 96-well black bottom plate (2×10^4 cell/well), and then incubated in a carbon dioxide incubator for 4.5 hours, which was defined as a cell plate.
(§2) • a. The compound mother liquor was prepared according to the following table, with complete medium as the solvent;
(§3) • b. 50 microliters of complete medium was added into columns 3-11 in the 96-v well plate; • c. 75 microliters of test compound (50 mg/mL) and positive control were added to the second column of the 96-v well plate; • d. 25 microliters of compound was drawn from the second column and added into the third column, blown and sucked a few times by a row pipettor, then 25 microliters of liquid was drawn from the third column and added to the fourth column, and subsequently subjected to a 3-fold series dilution until the 10th column. From column 2 to column 11, the compound concentration was 50, 16.67, 5.56, 1.85, 0.62, 0.21, 0.07, 0.02, 0.008, 0 mg/mL; • e. 20 μL compound solutions of various concentrations prepared were transferred by a row pipettor to the corresponding wells of the cell plate, which was defined as a testing plate. Culture of the Testing Plate:
(§4) All the plates were incubated in an incubator at 37° C., 5% CO2 for 43 hours.
(§5) After incubation, 10 microliters of Alma Blue was added to the testing plate. The testing plate was immediately incubated in an incubator at 37° C., 5% CO2 for 3 hours. Then the fluorescence value of each well of the testing plate was read by a microplate reader (wavelength Ex 540 nm/Em 585 nm). Then prism software was used to simulate the curve to calculate CC50 value.

The test system of the next data set is HK-2 cells. The data set can be described thus: Toxicity test on HK-2 cells (Alma Blue). It is filed as cell-based. The protocol: as §1, §2, §3, §4, §5

Consider `CN[C@@H]1[C@@H](O)[C@@H](O[C@@H]2[C@@H](O)[C@H](O[C@H]3OC(CNCCOCCONC(=N)N)=CC[C@H]3N)[C@@H](N)C[C@H]2NC(=O)[C@@H](O)CCN)OC[C@]1(C)O` [Compound 1], for which, in data set [1], the “CAP amplitude under click” value is reported as “consistent with the Control group”; the “hearing damage (CAP amplitude) at 16 kHz” value is recorded as “no different from the Control group”; the “hearing damage to experimental animals (CAP amplitude, overall)” value is “significantly lower than that of Gentamicin and Plazomicin”. Also, in data set [1] (29 day), the “CAP amplitude at 16 kHz” value stood at 381.646±20.895 uv, the “CAP amplitude at 32 kHz” value worked out at 79.420±7.000 uv, the “hearing damage (CAP amplitude) at 32 kHz” value came to 34.7% and the “reduction of hearing damage at 32 kHz compared to Gentamicin” value came out at 39.6%. Moreover, in data set [1] (29 day), the “reduction of hearing damage at 32 kHz compared to Plazomicin” value turned out to be 13.5%. Further, the CC50 at 43 h in data set [2] is > 10000 µg/mL. Also, the “toxicity to HK-2 cells compared with Netilmicin and Amikacin” value in the data set with HK-2 cells was “significantly lower than that of Netilmicin and Amikacin”. The Maximum inhibition rate in the data set with HK-2 cells (43 hours incubation plus 3 hours Alma Blue) turned out to be 21.96%. The “toxicity to HK-2 cells compared with Plazomicin” value with HK-2 cells (toxicity regression curve and software prediction (FIG. 8-11)) was “lower than Plazomicin”.
